Results reported in patent publication EP2790511B1 (Merck Sharp & Dohme Corp., priority 2011, dated 2013).
Like-named read-outs stand apart in the source and are kept apart here.

Target: T1, hROMK (hKir1.1) (Homo sapiens, UniProt P48048)
T1 construct: expressed in transfected cells
T1 sequence (P48048 1-391): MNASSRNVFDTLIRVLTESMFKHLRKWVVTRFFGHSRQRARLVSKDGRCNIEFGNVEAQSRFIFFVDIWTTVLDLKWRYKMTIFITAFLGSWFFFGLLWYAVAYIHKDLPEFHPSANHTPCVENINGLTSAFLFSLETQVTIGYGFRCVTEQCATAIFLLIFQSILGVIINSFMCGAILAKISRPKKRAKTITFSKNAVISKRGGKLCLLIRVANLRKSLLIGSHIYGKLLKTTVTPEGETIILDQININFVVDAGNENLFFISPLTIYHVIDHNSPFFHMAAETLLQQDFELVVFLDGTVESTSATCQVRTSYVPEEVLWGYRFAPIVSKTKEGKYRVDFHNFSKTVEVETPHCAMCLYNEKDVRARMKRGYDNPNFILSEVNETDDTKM
Assay: Thallium Flux Assay
Format: cell-based
Procedure: Cell Culture Conditions- HEK293 cells stably expressing hROMK (hKir1.1) were grown at 37°C in a 10%CO2 humidified incubator in complete growth media: Dulbecco's Modified Eagle Medium supplemented with non-essential amino acids, Penicillin/Streptomycin/Glutamine, G418 and FBS. At >80% confluency, aspirate the media from the flask and rinse with 10 mL Calcium/Magnesium-free PBS. […] To dislodge the cell, gently bang the side of the flask with your hand. Triturate the cells completely and then transfer the cells to 25 mL complete media. Centrifuge at 1,500 rpm for 6 min followed by resuspension in complete growth media and determine cell concentration. […] Under ideal growth conditions and appropriate tissue culture practices, this cell line is stable for 40-45 passages.
• FluxOR™ Reagent (Component A) • FluxOR™ Assay Buffer (Component B) - 10X Concentrate • PowerLoad™ Concentrate (Component C) - 100X Concentrate • Probenecid (Component D) - Lyophilized sample is kept at -20°C. Water soluble, 100X after solubilization in 1 mL water. […] Store at 4°C. • Thallium sulfate (Tl2SO4) Concentrate (Component G) - 50 mM in water. Store at 4°C • DMSO (dimethyl sulfoxide, Component H) - 1 mL (100%)
• 1000X FluxOR™ Reagent: Reconstitute a vial of component A in 100 µl DMSO; Mix well; Store 10 µl aliquots at -20°C • 1X FluxOR™ Assay Buffer: Dilute Component B 10-fold with water; Adjust pH to 7.4 with Hepes/NaOH; Filter and store at 4°C • Probenecid/Assay Buffer: 100 mL of 1X FluxOR™ Assay Buffer; 1 mL of reconstituted component D; Store at 4°C • Loading Buffer (per microplate): 10 µl 1000X FluxOR™ Reagent; 100 µl component C; 10 mL Probenecid/Assay Buffer • Compound Buffer (per microplate): 20 mL Probenecid/Assay Buffer; 0.3 mM ouabain (10 mM ouabain in water can be stored in amber bottle/aluminum foil at room temperature); Test compound • 1X FluxOR™Chloride-Free Buffer: Prepare 1X working solution in water. Can be stored at room temperature • Stimulant Buffer (prepared at 5X final concentration in 1X FluxOR™Chloride-Free Buffer): 7.5 mM Thallium sulfate and 0.75 mM Potassium sulfate (to give a final assay concentration of 3 mM Thallium/ 0.3 mM Potassium). Store at 4°C when not in use. If kept sterile, this solution is good for months.
Assay protocol- The ROMK channel functional thallium flux assay is performed in 384 wells, using the FLIPR-Tetra instrument. HEK-hKir1.1 cells are seeded in Poly-D-Lysine microplates and kept in a 37°C-10%CO2 incubator overnight. On the day of the experiment, the growth media is replaced with the FluxOR™ reagent loading buffer and incubated, protected from light, at ambient temperature (23-25°C) for 90 min. The loading buffer is replaced with assay buffer ± test compound followed by 30 min incubation at ambient temperature, where the Thallium/Potassium stimulant is added to the microplate.
• 1. Seed HEK-hKir1.1 cells (50 µl at 20,000 cells/well) in 384-well PDL coated Microplates • 2. Allow cells to adhere overnight in humidified 37°C/10%CO2 incubator • 3. Completely remove cell growth media from microplate and replace with 25 µl loading buffer • 4. Incubate Microplate at room temperature, protected form light, for 90 min • 5. Remove loading buffer and replace with 25 µl 1x Assay Buffer ± test compound. • 6. Incubate microplate at room temperature, protected form light, for 30 min • 7. […] Excitation = 400 nm, Emission = 460 & 580 nm. Collect data for ∼ 10 min.
Data Calculation- The fluorescence intensity of wells containing 3 µM of a standard control ROMK inhibitor of the present invention is used to define the ROMK-sensitive component of thallium flux. Fluorescence in the presence of test compounds is normalized to control values to provide % fluorescence change.

[1] = HEK293 cells stably expressing hROMK (hKir1.1), FLIPR-Tetra, read-out: Thallium Flux IC50

Cc1cc2c(cc1[C@H]1CN3CCN(C(=O)Cc4ccc(-n5cnnn5)nc4)C[C@H]3CO1)COC2=O [Example 73, 6-methyl-5-[(3S,9aS)-8-{[6-(1H-tetrazol-1-yl)pyridin-3-yl]acetyl}octahydropyrazino[2,1-c][1,4]oxazin-3-yl]-2-benzofuran-1(3H)-one]
IC50 [1]: 0.23 µM

Cc1c(C#N)cccc1[C@H]1CN2CCN(C(=O)Cc3ccc(-n4cnnn4)nc3)C[C@H]2CO1 [Example 90, 2-methyl-3-[(3S,9aS)-8-{[6-(1H-tetrazol-1-yl)pyridin-3-yl]acetyl}octahydropyrazino[2,1-c][1,4]oxazin-3-yl]benzonitrile]
IC50 (Thallium Flux IC50): 0.13 µM

O=C1OCc2cc([C@H]3CN4CCN(C(=O)Cc5ccc(-n6cnnn6)cn5)C[C@H]4CO3)ccc21 [Example 28, 5-[(3S,9aS)-8-{[5-(1H-tetrazol-1-yl)pyridin-2-yl]acetyl}octahydropyrazino[2,1-c][1,4]oxazin-3-yl]-2-benzofuran-1(3H)-one]
IC50 [1]: 0.18 µM

N#Cc1c(F)cc([C@H]2CN3CCN(C(=O)Cc4ccc(-n5cnnn5)nc4)C[C@@H]3CO2)cc1F [Example 108, 2,6-difluoro-4-[(3S,9aR)-8-{[6-(1H-tetrazol-1-yl)pyridin-3-yl]acetyl}octahydropyrazino[2,1-c][1,4]oxazin-3-yl]benzonitrile]
IC50 [1]: 0.49 µM

Cc1c([C@@H]2CN3CCN(C(=O)Cc4cnc(-n5cnnn5)c(F)c4)C[C@H]3CO2)ccc(F)c1C#N [Example 148, 6-fluoro-3-[(3R,9aS)-8-{[5-fluoro-6-(1H-tetrazol-1-yl)pyridin-3-yl]acetyl}octahydropyrazino[2,1-c][1,4]oxazin-3-yl]-2-methylbenzonitrile]
IC50 [1]: 0.08 µM

N#Cc1cc([C@@H]2CN3CCN(C(=O)Cc4ccc(-n5cnnn5)nc4)C[C@H]3CO2)c(F)cc1F [Example 81, 2,4-difluoro-5-[(3R,9aS)-8-{[6-(1H-tetrazol-1-yl)pyridin-3-yl]acetyl}octahydropyrazino[2,1-c][1,4]oxazin-3-yl]benzonitrile]
IC50 (Thallium Flux IC50): 0.16 µM

Cc1c([C@H]2CN3CCN(C(=O)Cc4ccc(-n5cnnn5)nc4)C[C@H]3CO2)ccc2c1COC2=O [Example 21, 4-methyl-5-[(3S,9aS)-8-{[6-(1H-tetrazol-1-yl)pyridin-3-yl]acetyl}octahydropyrazino[2,1-c][1,4]oxazin-3-yl]-2-benzofuran-1(3H)-one]
IC50 (Thallium Flux IC50): 0.1 µM

Cc1nc(-n2cnnn2)ncc1CC(=O)N1CCN2C[C@@H](c3ccc(F)c(C#N)c3Cl)OC[C@H]2C1 [Example 138, 2-chloro-6-fluoro-3-[(3R,9aR)-8-{[4-methyl-2-(1H-tetrazol-1-vl)pvrimidin-5-yl]acetyl}octahydropyrazino[2,1-c][1,4]oxazin-3-yl]benzonitrile]
IC50 [1]: 0.14 µM

COc1cc([C@@H]2CN3CCN(C(=O)Cc4ccc(-n5cnnn5)nc4)C[C@H]3CO2)cc(F)c1C#N [Example 114, 2-fluoro-6-methoxy-4-[(3R,9aS)-8-{[6-(1H-tetrazol-1-vl)pvridin-3-yl]acetyl}octahydropyrazino[2,1-c][1,4]oxazin-3-yl]benzonitrile]
IC50 (Thallium Flux IC50): 0.11 µM

Cc1c([C@@H]2CN3CCN(C(=O)Cc4ccc(-n5cnnn5)nc4)C[C@H]3CS2)ccc2c1COC2=O [Example 166, 4-methyl-5-[(3R,9aS)-8-{[6-(1H-tetrazol-1-yl)pyridin-3-yl]acetyl}octahydropyrazino[2,1-c][1,4]thiazin-3-yl]-2-benzofuran-1(3H)-one]
IC50 [1]: 0.38 µM

O=C1OCc2c1ccc([C@H]1CN3CCN(C(=O)Cc4ccc(-n5cnnn5)nc4)C[C@H]3CO1)c2Br [Example 48, 4-bromo-5-[(3S,9aS)-8-{[6-(1H-tetrazol-1-yl)pyridin-3-yl]acetyl}octahydropyrazino[2,1-c][1,4]oxazin-3-yl]-2-benzofuran-1(3H)-one]
IC50 [1]: 0.15 µM

N#Cc1cc([C@@H]2CN3CCN(C(=O)Cc4cnc(-n5cnnn5)nc4)C[C@H]3CN2)ccc1F [Example 197, 2-fluoro-5-[(3R,9aR)-8-{[2-(1H-tetrazol-1-yl)pyrimidin-5-yl]acetyl}octahydro-2H-pyrazino[1,2-a]pyrazin-3-yl]benzonitrile]
IC50 [1]: 0.24 µM

O=C1OCc2c1ccc([C@@H]1CN3CCN(C(=O)Cc4ccc(-n5cnnn5)nc4)C[C@H]3CO1)c2Cl [Example 46, 4-chloro-5-[(3R,9aS)-8-{[6-(1H-tetrazol-1-yl)pyridin-3-yl]acetyl}octahydropyrazino[2,1-c][1,4]oxazin-3-yl]-2-benzofuran-1(3H)-one]
IC50 (Thallium Flux IC50): 0.67 µM

Cc1c([C@H]2CN3CCN(C(=O)Cc4ccc(-n5cnnn5)nc4)C[C@H]3CS2)ccc2c1COC2=O [Example 167, 4-methyl-5-[(3S,9aS)-8-{[6-(1H-tetrazol-1-yl)pyridin-3-yl]acetyl}octahydropyrazino[2,1-c][1,4]thiazin-3-yl]-2-benzofuran-1(3H)-one]
IC50 [1]: 0.42 µM

COc1cc([C@H]2CN3CCN(C(=O)Cc4ccc(-n5cnnn5)nc4)C[C@H]3CO2)cc(F)c1C#N [Example 113, 2-fluoro-6-methoxy-4-[(3S,9aS)-8-{[6-(1H-tetrazol-1-vl)pvridin-3-yl]acetyl}octahydropyrazino[2,1-c][1,4]oxazin-3-yl]benzonitrile]
IC50 [1]: 0.12 µM

Cc1c([C@@H]2CN3CCN(C(=O)Cc4ncc(-n5cnnn5)cc4Cl)C[C@@H]3CO2)ccc(F)c1C#N [Example 154, 3-[(3R,9aR)-8-{[3-chloro-5-(1H-tetrazol-1-yl)pyridin-2-yl]acetyl}octahydropyrazino[2,1-c][1,4]oxazin-3-yl]-6-fluoro-2-methylbenzonitrile]
IC50 (Thallium Flux IC50): 0.2 µM

COc1cc([C@@H]2CN3CCN(C(=O)Cc4ccc(-n5cnnn5)nc4)C[C@@H]3CO2)cc(F)c1C#N [Example 111, 2-fluoro-6-methoxy-4-[(3R,9aR)-8-{[6-(1H-tetrazol-1-vl)pvridin-3-yl]acetyl}octahydropyrazino[2,1-c][1,4]oxazin-3-yl]benzonitrile]
IC50 [1]: 0.17 µM

Cc1nc(CC(=O)N2CCN3C[C@H](c4ccc(F)c(C#N)c4C)OC[C@@H]3C2)ccc1-n1cnnn1 [Example 127, 6-fluoro-2-methyl-3-[(3S,9aS)-8-{[6-methyl-5-(1H-tetrazol-1-vl)pvridin-2-yl]acetyl}octahydropyrazino[2,1-c][1,4]oxazin-3-yl]benzonitrile]
IC50 (Thallium Flux IC50): 0.09 µM

Cc1c([C@H]2CN3CCN(C(=O)Cc4ccc(-n5cnnn5)nn4)C[C@H]3CO2)ccc(F)c1C#N [Example 155, 6-fluoro-2-methyl-3-[(3S,9aS)-8-{[6-(1H-tetrazol-1-yl)pyridazin-3-yl]acetyl}octahydropyrazino [2,1-c][1,4]oxazin-3-yl]benzonitrile]
IC50 [1]: 0.3 µM

Cc1cc([C@H]2CN3CCN(C(=O)Cc4ccc(-n5cnnn5)nc4)C[C@@H]3CO2)c(C)c(C#N)c1F [Example 173, 2-fluoro-3,6-dimethyl-5-[(3S,9aR)-8-{[6-(1H-tetrazol-1-vl)pvridin-3-yl]acetyl}octahydropyrazino[2,1-c][1,4]oxazin-3-yl]benzonitrile]
IC50 [1]: 0.3 µM
